{"source": "patent US12486290B2", "about": "“Isoindolinone and indazole compounds for the degradation of EGFR” (C4 THERAPEUTICS, INC., priority 2019, dated 2025)", "data": [{"target": "T1, EGFR T790M/L858R (NCI-H1975 cells) (Homo sapiens, UniProt P00533, L858R/T790M)", "T1 construct": "NCI-H1975 (harboring EGFR heterozygous T790M/L858R mutations); host or cells: NCI-H1975", "T1 sequence (P00533 25-1210 T790M/L858R)": "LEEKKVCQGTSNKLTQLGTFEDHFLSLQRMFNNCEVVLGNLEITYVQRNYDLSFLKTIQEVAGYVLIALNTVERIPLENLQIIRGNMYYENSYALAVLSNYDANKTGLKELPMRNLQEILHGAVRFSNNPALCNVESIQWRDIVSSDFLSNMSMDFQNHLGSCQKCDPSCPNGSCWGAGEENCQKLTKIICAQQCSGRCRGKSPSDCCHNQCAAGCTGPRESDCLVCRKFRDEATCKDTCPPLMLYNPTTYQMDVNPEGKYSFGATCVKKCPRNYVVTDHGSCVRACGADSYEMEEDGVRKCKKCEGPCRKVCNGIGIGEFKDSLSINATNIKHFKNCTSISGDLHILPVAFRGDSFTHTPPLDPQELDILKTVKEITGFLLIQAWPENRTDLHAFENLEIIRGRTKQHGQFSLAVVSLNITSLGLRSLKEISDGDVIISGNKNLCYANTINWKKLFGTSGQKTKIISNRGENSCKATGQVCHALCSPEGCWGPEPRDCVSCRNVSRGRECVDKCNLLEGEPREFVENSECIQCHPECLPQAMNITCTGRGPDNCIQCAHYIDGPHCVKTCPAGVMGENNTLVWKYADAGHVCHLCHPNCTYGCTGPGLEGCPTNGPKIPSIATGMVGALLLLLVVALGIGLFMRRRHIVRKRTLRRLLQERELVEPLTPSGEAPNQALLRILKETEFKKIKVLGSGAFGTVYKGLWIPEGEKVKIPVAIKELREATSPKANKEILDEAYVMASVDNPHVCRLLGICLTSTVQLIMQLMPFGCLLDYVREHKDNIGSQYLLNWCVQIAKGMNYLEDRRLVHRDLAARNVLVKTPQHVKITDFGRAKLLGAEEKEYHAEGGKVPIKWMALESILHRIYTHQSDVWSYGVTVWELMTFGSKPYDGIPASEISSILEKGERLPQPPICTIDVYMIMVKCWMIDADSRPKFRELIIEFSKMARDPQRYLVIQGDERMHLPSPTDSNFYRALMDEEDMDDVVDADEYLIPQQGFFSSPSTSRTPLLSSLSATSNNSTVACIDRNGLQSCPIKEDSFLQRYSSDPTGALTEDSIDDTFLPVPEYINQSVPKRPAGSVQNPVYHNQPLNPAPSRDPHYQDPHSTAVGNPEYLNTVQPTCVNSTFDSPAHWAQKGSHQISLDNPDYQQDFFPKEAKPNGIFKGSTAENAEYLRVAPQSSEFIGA", "experiment": "EGFR (L858R) degradation analysis, Total EGFR (L858R) HTRF, NCI-H1975 cells", "format": "cell-based", "conditions": "6 hours", "text": "(§1) NCI-H1975 (harboring EGFR heterozygous T790M/L858R mutations) and NCI-H3255 (harboring EGFR heterozygous L858R mutation) were purchased from ATCC and NCI, respectively. NCI-H1975+CS (harboring EGFR heterozygous T/790M/L858R/C797S mutations) was generated using CRISPR technology to introduce the additional C797S mutation by Horizon Discovery. RPMI 1640 no-phenol red medium and fetal bovine serum (FBS) were purchased from Gibco (Grand Island, NY, USA). Cell culture flasks and 384-well microplates were acquired from VWR (Radnor, PA, USA). Total EGFR (L858R) HTRF assay kits were purchased from Cisbio (Bedford, MA, USA).\n(§2) Degradation of EGFR protein containing L858R mutation was determined based on quantification of FRET signal using Total EGFR (L858R) HTRF assay kit. Test compounds were added to the 384-well plate from a top concentration of 10 μM with 11 points, half log titration in duplicates. NCI-H1975, NCI-H1975+CS or NCI-H3255 cells were added into 384-well plates at a cell density of 10000, 10000 or 1000 cells per well, respectively. The plates were kept at 37° C. with 5% CO2 for 6 hours. Cells treated in the absence of the test compound were the negative control. Positive control was set by wells containing all reagents but no cells. FRET signal was acquired on EnVision™ Multilabel Reader (PerkinElmer, Santa Clara, CA, USA).", "units": {"DC50": "nM"}, "values": [{"molecule": "O=C1CCC(Nc2ccc(CC(=O)N3CCC(NC(=O)c4ccc(C#Cc5cc(F)c6c(c5)C(=O)N(C(C(=O)Nc5nccs5)c5ncn7c5CCC7)C6)cn4)CC3)cc2)C(=O)N1", "note": "(stereo not shown) [Compound 2, 5-[2-[2-[1-(6,7-dihydro-5H-pyrrolo[1,2-c]imidazol-1-yl)-2-oxo-2-(thiazol-2-ylamino)ethyl]-7-fluoro-3-oxo-isoindolin-5-yl]ethynyl]-N-[1-[2-[4-[(2,6-dioxo-3-piperidyl)amino]phenyl]acetyl]-4-piperidyl]pyridine-2-carboxamide]", "DC50": 7}, {"molecule": "O=C1CCC(Nc2ccc(C3CCN(C(=O)CCCN4CCN(c5ccc(-c6cc(F)c7c(c6)C(=O)N(C(C(=O)Nc6nccs6)c6ncn8c6CCC8)C7)cc5)CC4)CC3)cc2)C(=O)N1", "note": "(racemic) [Compound 8, (2RS)-2-(6,7-Dihydro-5H-pyrrolo[1,2-c]imidazol-1-yl)-2-[4-fluoro-1-oxo-6-[4-[4-[4-oxo-4-[4-[4-[[(3RS)-2,6-dioxo-3-piperidyl]amino]phenyl]-1-piperidyl]butyl]piperazin-1-yl]phenyl]isoindolin-2-yl]-N-thiazol-2-yl-acetamide]", "DC50": 17}, {"molecule": "O=C1CCC(Nc2ccc(C3CCN(CC(=O)N4CC5(C4)CN(c4ccc(-c6cc(F)c7c(c6)C(=O)N(C(C(=O)Nc6nccs6)c6ncn8c6CCC8)C7)cc4)C5)CC3(F)F)cc2)C(=O)N1", "note": "(single isomer, unassigned) [Compound 51, 2-(6,7-dihydro-5H-pyrrolo[1,2-c]imidazol-1-yl)-2-(6-(4-(6-(2-(4-(4-((2,6-dioxopiperidin-3-yl)amino)phenyl)-3,3-difluoropiperidin-1-yl)acetyl)-2,6-diazaspiro[3.3]heptan-2-yl)phenyl)-4-fluoro-1-oxoisoindolin-2-yl)-N-(thiazol-2-yl)acetamide]", "DC50": 13}, {"molecule": "Cn1nc(N2CCC(=O)NC2=O)c2ccc(C3CCN(CC(=O)N4CC5(C4)CN(c4ccc(-c6cc(F)c7c(c6)C(=O)N(C(C(=O)Nc6ccccn6)c6ncn8c6CCC8)C7)cc4)C5)CC3(F)F)cc21", "note": "(stereo not shown) [Compound 55, 2-(6,7-dihydro-5H-pyrrolo[1,2-c]imidazol-1-yl)-2-[6-[4-[2-[2-[4-[3-(2,4-dioxohexahydropyrimidin-1-yl)-1-methyl-indazol-6-yl]-3,3-difluoro-1-piperidyl]acetyl]-2,6-diazaspiro[3.3]heptan-6-yl]phenyl]-4-fluoro-1-oxo-isoindolin-2-yl]-N-(2-pyridyl)acetamide]", "DC50": 11}, {"molecule": "O=C1CCC(Nc2ccc(C3CCN(CC(=O)N4CCN(c5ccc(-c6cc(F)c7cn(C(C(=O)Nc8nccs8)c8ncn9c8CCC9)nc7c6)cn5)CC4)CC3)c(F)c2)C(=O)N1", "note": "(stereo not shown) [Compound 64, 2-(6,7-dihydro-5H-pyrrolo[1,2-c]imidazol-1-yl)-2-[6-[6-[4-[2-[4-[4-[(2,6-dioxo-3-piperidyl)amino]-2-fluoro-phenyl]-1-piperidyl]acetyl]piperazin-1-yl]-3-pyridyl]-4-fluoro-indazol-2-yl]-N-thiazol-2-yl-acetamide]", "DC50": 137}, {"molecule": "O=C1CCC(N2Cc3c(OC4CCN(C(=O)CCCN5CCN(c6ccc(-c7ccc8cn(C(C(=O)Nc9nccs9)c9ncn%10c9CCC%10)nc8c7F)cn6)CC5)CC4)cccc3C2=O)C(=O)N1", "note": "(racemic) [Compound 62, (2RS)-2-(6,7-Dihydro-5H-pyrrolo[1,2-c]imidazol-1-yl)-2-[7-fluoro-6-[6-[4-[4-oxo-4-[4-[1-oxo-2-[(3RS)-2,6-dioxo-3-piperidyl]isoindolin-4-yl]oxy-1-piperidyl]butyl]piperazin-1-yl]-3-pyridyl]indazol-2-yl]-N-thiazol-2-yl-acetamide]", "DC50": 19}, {"molecule": "O=C1CC[C@H](Nc2ccc(C3CCN(CC(=O)N4CC[C@H](Oc5ccc(-c6cc(F)c7c(c6)C(=O)N(C(C(=O)Nc6nccs6)c6ncn8c6CCC8)C7)cc5)C4)CC3)cc2)C(=O)N1", "note": "(stereo partly drawn) [Compound 42, 2-(6,7-dihydro-5H-pyrrolo[1,2-c]imidazol-1-yl)-2-[6-[4-[(3S)-1-[2-[4-[4-[[(3S)-2,6-dioxo-3-piperidyl]amino]phenyl]-1-piperidyl]acetyl]pyrrolidin-3-yl]oxyphenyl]-4-fluoro-1-oxo-isoindolin-2-yl]-N-thiazol-2-yl-acetamide]", "DC50": 20}, {"molecule": "O=C1CCC(Nc2ccc(C3CCN(CC(=O)N4CCN(c5ccc(-c6ccc7cn(C(C(=O)Nc8nccs8)c8ncn9c8CCC9)nc7c6F)cn5)CC4)CC3)cc2)C(=O)N1", "note": "(racemic) [Compound 63, (2RS)-2-(6,7-Dihydro-5H-pyrrolo[1,2-c]imidazol-1-yl)-2-[7-fluoro-6-[6-[4-[2-[4-[4-[[(3RS)-2,6-dioxo-3-piperidyl]amino]phenyl]-1-piperidyl]acetyl]piperazin-1-yl]-3-pyridyl]indazol-2-yl]-N-thiazol-2-yl-acetamide]", "DC50": 81}, {"molecule": "O=C1CCC(Nc2ccc(C3CCN(CC(=O)N4CCC(Oc5ccc(-c6cc(F)c7c(c6)C(=O)N(C(C(=O)Nc6nccs6)c6ncn8c6CCC8)C7)cc5)CC4)CC3)cc2)C(=O)N1", "note": "(stereo not shown) [Compound 31, 2-(6,7-dihydro-5H-pyrrolo[1,2-c]imidazol-1-yl)-2-[6-[4-[[1-[2-[4-[4-[(2,6-dioxo-3-piperidyl)amino]phenyl]-1-piperidyl]acetyl]-4-piperidyl]oxy]phenyl]-4-fluoro-1-oxo-isoindolin-2-yl]-N-thiazol-2-yl-acetamide]", "DC50": 32}, {"molecule": "O=C1CC[C@H](Nc2ccc(C3CCN(CC(=O)N4CC[C@@H](Oc5ccc(-c6cc(F)c7c(c6)C(=O)N(C(C(=O)Nc6nccs6)c6ncn8c6CCC8)C7)cc5)C4)CC3)cc2)C(=O)N1", "note": "(stereo partly drawn) [Compound 41, 2-(6,7-dihydro-5H-pyrrolo[1,2-c]imidazol-1-yl)-2-[6-[4-[(3R)-1-[2-[4-[4-[[(3S)-2,6-dioxo-3-piperidyl]amino]phenyl]-1-piperidyl]acetyl]pyrrolidin-3-yl]oxyphenyl]-4-fluoro-1-oxo-isoindolin-2-yl]-N-thiazol-2-yl-acetamide]", "DC50": 26}, {"molecule": "O=C1NC(=O)C2(Nc3ccc(C4CCN(CC(=O)N5CCC(Oc6ccc(-c7cc(F)c8c(c7)C(=O)N(C(C(=O)Nc7nccs7)c7ncn9c7CCC9)C8)cc6)CC5)CC4)cc3)CC1C2", "note": "(stereo not shown) [Compound 38, 2-(6,7-dihydro-5H-pyrrolo[1,2-c]imidazol-1-yl)-2-(6-(4-((1-(2-(4-(4-((2,4-dioxo-3-azabicyclo[3.1.1]heptan-1-yl)amino)phenyl)piperidin-1-yl)acetyl)piperidin-4-yl)oxy)phenyl)-4-fluoro-1-oxoisoindolin-2-yl)-N-(thiazol-2-yl)acetamide]", "DC50": 52}, {"molecule": "O=C1CCC(Nc2ccc(C3CCC(CC(=O)N4CCN(c5ccc(-c6cc(F)c7c(c6)C(=O)N(C(C(=O)Nc6nccs6)c6ncn8c6CCC8)C7)cc5)CC4)CC3)cc2)C(=O)N1", "note": "(racemic) [Compound 9, (2RS)-2-(6,7-Dihydro-5H-pyrrolo[1,2-c]imidazol-1-yl)-2-[4-fluoro-1-oxo-6-[4-[4-[2-[4-[4-[[(3RS)-2,6-dioxo-3-piperidyl]amino]phenyl]cyclohexyl]acetyl]piperazin-1-yl]phenyl]isoindolin-2-yl]-N-thiazol-2-yl-acetamide]", "DC50": 30}]}, {"target": "T1, EGFR T790M/L858R (NCI-H1975 cells)", "experiment": "EGFR (L858R) degradation analysis, Total EGFR (L858R) HTRF, NCI-H1975 cells", "format": "cell-based", "conditions": "6 hours, class symbols", "text": "as §1, §2", "units": {"DC50": "nM"}, "values": [{"molecule": "O=C1CCC(c2ccc(N3CCC(O)(CC(=O)N4CC5(CCN(c6ccc(-c7cc(F)c8c(c7)C(=O)N(C(C(=O)Nc7nccs7)c7ncn9c7CCC9)C8)cc6)CC5)C4)CC3)c(F)c2)C(=O)N1", "note": "(stereo not shown) [Compound 159, 2-(6,7-dihydro-5H-pyrrolo[1,2-c]imidazol-1-yl)-2-[6-[4-[2-[2-[1-[4-(2,6-dioxo-3-piperidyl)-2-fluoro-phenyl]-4-hydroxy-4-piperidyl]acetyl]-2,7-diazaspiro[3.5]nonan-7-yl]phenyl]-4-fluoro-1-oxo-isoindolin-2-yl]-N-thiazol-2-yl-acetamide]", "DC50": "50 to 150"}]}]}
